# Where two headings read alike, the source gives them in different places.
# Assay: Pharmacokinetic phase: plasma exposure after oral dosing in non-infected PXB mice
# Assay type: in vivo
# Conditions: for concentration at 0.5 h / concentration at 1 h / concentration at 2 h / concentration at 4 h / concentration at 6 h / concentration at 24 h: PXB, mouse, plasma, po
# Method: Thirty microliters (30 μL) of blood were collected from all animals under isoflurane anesthesia via the retro-orbital plexus/sinus using sodium heparin-coated calibrated pipettes according to the collection schedule shown in Table 7. The individual blood samples of the animals were transferred to labeled microtubes and stored under chilled conditions until centrifugation at 3500×g, 5° C. for 10 minutes to obtain plasma. Individual plasma samples were transferred into separately labeled microtubes and snap frozen in liquid nitrogen. The plasma exposure of Compound 1 from the pharmacokinetic phase was measured via LC/MS- MS. The lower limit of quantitation was 1 ng/mL.
# [1] = 10 mg/kg, non-infected PXB mice, 10 mg/kg p.o., animal 101, read-out: Plasma conc.
# [2] = 10 mg/kg, non-infected PXB mice, 10 mg/kg p.o., animal 102, read-out: Plasma conc.
# [3] = 10 mg/kg, non-infected PXB mice, 10 mg/kg p.o., animal 103, read-out: Plasma conc.
# [4] = 10 mg/kg, non-infected PXB mice, 10 mg/kg p.o., mean of 3 animals, read-out: Plasma conc. Mean ± SD
# [5] = 10 mg/kg, non-infected PXB mice, 10 mg/kg p.o., animal 201, read-out: Plasma conc.
# [6] = 10 mg/kg, non-infected PXB mice, 10 mg/kg p.o., animal 202, read-out: Plasma conc.
# [7] = 10 mg/kg, non-infected PXB mice, 10 mg/kg p.o., animal 203, read-out: Plasma conc.
# [8] = 30 mg/kg, non-infected PXB mice, 30 mg/kg p.o., animal 301, read-out: Plasma conc.
# [9] = 30 mg/kg, non-infected PXB mice, 30 mg/kg p.o., animal 302, read-out: Plasma conc.
# [10] = 30 mg/kg, non-infected PXB mice, 30 mg/kg p.o., animal 303, read-out: Plasma conc.
# [11] = 30 mg/kg, non-infected PXB mice, 30 mg/kg p.o., mean of 3 animals, read-out: Plasma conc. Mean ± SD
# [12] = 30 mg/kg, non-infected PXB mice, 30 mg/kg p.o., animal 401, read-out: Plasma conc.
# [13] = 30 mg/kg, non-infected PXB mice, 30 mg/kg p.o., animal 402, read-out: Plasma conc.
# [14] = 30 mg/kg, non-infected PXB mice, 30 mg/kg p.o., animal 403, read-out: Plasma conc.
compound,measurement,setting,value
"CCCCC1CN(c2ccccc2)c2cc(SC)c(O/C=C(\F)C(=O)O)cc2S(=O)(=O)N1C (centres unmarked) [Compound 1, (Z)-3-((3-butyl-2-methyl-7-(methylthio)-1,1-dioxido-5-phenyl-2,3,4,5-tetrahydro-1,2,5-benzothiadiazepin-8-yl)oxy)-2-fluoroacrylic acid]",plasma exposure versus dose,10 and 30 mg/kg p.o.,increased with increased dose
same,detection in plasma,"10 and 30 mg/kg p.o., non-infected PXB mice",detected in plasma throughout the 24-hour time period
same,concentration at 0.5 h,[1],1290 ng/mL
same,concentration at 0.5 h,[2],2650 ng/mL
same,concentration at 0.5 h,[3],727 ng/mL
same,concentration at 0.5 h,[4],1560 ± 990 ng/mL
same,concentration at 1 h,[5],492 ng/mL
same,concentration at 1 h,[6],763 ng/mL
same,concentration at 1 h,[7],1810 ng/mL
same,concentration at 1 h,[4],1020 ± 690 ng/mL
same,concentration at 2 h,[1],194 ng/mL
same,concentration at 2 h,[2],322 ng/mL
same,concentration at 2 h,[3],177 ng/mL
same,concentration at 2 h,[4],231 ± 79 ng/mL
same,concentration at 4 h,[5],111 ng/mL
same,concentration at 4 h,[6],61.4 ng/mL
same,concentration at 4 h,[7],587 ng/mL
same,concentration at 4 h,[4],253 ± 290 ng/mL
same,concentration at 6 h,[1],46.2 ng/mL
same,concentration at 6 h,[2],63.5 ng/mL
same,concentration at 6 h,[3],130 ng/mL
same,concentration at 6 h,[4],80 ± 44 ng/mL
same,concentration at 24 h,[5],25.3 ng/mL
same,concentration at 24 h,[6],27.2 ng/mL
same,concentration at 24 h,[7],1.4 ng/mL
same,concentration at 24 h,[4],18 ± 14 ng/mL
same,concentration at 0.5 h,[8],1880 ng/mL
same,concentration at 0.5 h,[9],2910 ng/mL
same,concentration at 0.5 h,[10],6810 ng/mL
same,concentration at 0.5 h,[11],3870 ± 2600 ng/mL
same,concentration at 1 h,[12],4560 ng/mL
same,concentration at 1 h,[13],5320 ng/mL
same,concentration at 1 h,[14],1470 ng/mL
same,concentration at 1 h,[11],3780 ± 2000 ng/mL
same,concentration at 2 h,[8],2420 ng/mL
same,concentration at 2 h,[9],590 ng/mL
same,concentration at 2 h,[10],3040 ng/mL
same,concentration at 2 h,[11],2020 ± 1300 ng/mL
same,concentration at 4 h,[12],1120 ng/mL
same,concentration at 4 h,[13],1090 ng/mL
same,concentration at 4 h,[14],217 ng/mL
same,concentration at 4 h,[11],811 ± 510 ng/mL
same,concentration at 6 h,[8],554 ng/mL
same,concentration at 6 h,[9],99.8 ng/mL
same,concentration at 6 h,[10],1490 ng/mL
same,concentration at 6 h,[11],715 ± 700 ng/mL
same,concentration at 24 h,[12],230 ng/mL
same,concentration at 24 h,[13],229 ng/mL
same,concentration at 24 h,[14],148 ng/mL
same,concentration at 24 h,[11],202 ± 47 ng/mL
